Measured values published in US7446106B2, “Pyridylfurans and pyrroles as Raf kinase inhibitors” (SmithKline Beecham plc, priority 2001, dated 2008).

Assays:
B-Raf = B-Raf (Homo sapiens, UniProt P15056); assay: Fluorescence anisotropy kinase binding assay (Assay 1)
Text: The activity of compounds of formula (I) as B-Raf inhibitors may be determined by the following in vitro assay:
Fluorescence Anisoptrophy Kinase Binding Assay
The concentration of kinase enzyme should preferably be >1×Kf. The concentration of fluorescent ligand required will depend on the instrumentation used, and the fluorescent and physicochemical properties. The concentration used must be lower than the concentration of kinase enzyme, and preferably less than half the kinase enzyme concentration. A typical protocol is:
All compounds are serially diluted in DMSO, then by a one step dilution into buffer of comparison, 50 mM HEPES, […] pH7.5, 1 mM CHAPS, 10 mM MgCL2, for the assay.
B-Raf Enzyme concentration: 1 nM
Fluorescent ligand concentration: 0.5 nM
Test compound concentration: 0.5 nM-100 uM
Components incubated in 10 ul final volume in LJL HE 384 type B black microtitre plate until equilibrium reached (Over 3 h, up to 30 h)
Fluorescence anisotropy read in an LJL Acquest fluorescence reader.
Definitions: Ki=dissociation constant for inhibitor binding
• Kf=dissociation constant for fluorescent ligand binding
The fluorescent ligand is the following compound:
which is derived from 5-[2(4aminomethylphenyl)-5-pyridin-4-yl-1H-imidazolyl-4-yl]-2-chlorophenol and rhodamine green.

[1] = system: HFF (normal human foreskin fibroblasts); assay: Methylene blue growth inhibition assay (Assay 2), HFF; type: cell-based; conditions: Fibroblast, 72 h, B-Raf wt, Ras wt, 3 days, read-out: IC50 cell growth, HFF
[2] = system: Colo201 (human colon carcinoma); assay: XTT 72 hr growth inhibition (Assay 3), Colo201; type: cell-based; conditions: COLO 201, colorectal cancer, B-Raf status ND, Ras ND, read-out: IC50 cell viability, Colo201
Procedure: XTT 72 Hr Growth Inhibition Protocol for Mammalian Cultured Cells (Assay 3)
Human diploid foreskin fibroblasts (HFF) or human colon carcinoma (Colo 201) cells were grown in Dulbecco's modified Eagle's medium (DMEM) (kvitrogen/Life Technologies) containing 10% fetal bovine serum (FBS) and the antibiotics penicillin (100 Units/ml) and streotomycin (100 microgramnis/ml) (Invitrogen/Life Technologies). Growth was at 37° C. in humidified 5% CO2 incubators in 75 cm^2 plastic flasks. Cells were harvested using 0.25% trypsin/1 mM ethylenediaminetetraacetic acid (EDTA), resuspended in growth medium, and counted using a hemocytometer. Flat-bottomed 96-well plates were seeded with 2×10^3 cells/well in a volume of 200 ul from trypsinized exponentially growing cultures. To “blank” wells, growth medium was added with no additions. Cells were incubated overnight to permit attachment.
Next day, medium from wells that contained cells was replaced with 180 microliters of fresh medium. Appropriate dilutions of test compounds were added to the wells from stock soloutions of compound dissolved in dimethyl sulfoxide (DMSO); final DMSO concentration in all wells was 0.2%. […] Absorbance at 450 nm was then determined using a 96-well UV plate reader (Molecular Devices). Under these conditions, absorbance of untreated control cells at […] was at least 1.0 optical density unit/ml. […]

[3] = system: Colo205 (colon carcinoma); assay: Methylene blue growth inhibition assay (Assay 2), Colo205; type: cell-based; conditions: Homo sapiens, COLO 205, 72 h, colorectal cancer, B-Raf V599E, Ras wt, 3 days, read-out: IC50 cell growth, Colo205
A375P (human melanoma) = assay: Methylene blue growth inhibition assay (Assay 2), A375P; type: cell-based; conditions: 72 h, B-Raf V599E, Ras wt, 3 days, read-out: IC50 cell growth, A375P
SKMEL3 (human melanoma) = assay: Methylene blue growth inhibition assay (Assay 2), SKMEL3; type: cell-based; conditions: SK-MEL3, 72 h, B-Raf V599E, Ras wt, 3 days, read-out: IC50 cell growth, SKMEL3
SKMEL2 (human melanoma) = assay: Methylene blue growth inhibition assay (Assay 2), SKMEL2; type: cell-based; conditions: SK-MEL-2, 72 h, B-Raf wt, [Q61R]N-Ras, 3 days, read-out: IC50 cell growth, SKMEL2

Chain of B-Raf (P15056 whole entry): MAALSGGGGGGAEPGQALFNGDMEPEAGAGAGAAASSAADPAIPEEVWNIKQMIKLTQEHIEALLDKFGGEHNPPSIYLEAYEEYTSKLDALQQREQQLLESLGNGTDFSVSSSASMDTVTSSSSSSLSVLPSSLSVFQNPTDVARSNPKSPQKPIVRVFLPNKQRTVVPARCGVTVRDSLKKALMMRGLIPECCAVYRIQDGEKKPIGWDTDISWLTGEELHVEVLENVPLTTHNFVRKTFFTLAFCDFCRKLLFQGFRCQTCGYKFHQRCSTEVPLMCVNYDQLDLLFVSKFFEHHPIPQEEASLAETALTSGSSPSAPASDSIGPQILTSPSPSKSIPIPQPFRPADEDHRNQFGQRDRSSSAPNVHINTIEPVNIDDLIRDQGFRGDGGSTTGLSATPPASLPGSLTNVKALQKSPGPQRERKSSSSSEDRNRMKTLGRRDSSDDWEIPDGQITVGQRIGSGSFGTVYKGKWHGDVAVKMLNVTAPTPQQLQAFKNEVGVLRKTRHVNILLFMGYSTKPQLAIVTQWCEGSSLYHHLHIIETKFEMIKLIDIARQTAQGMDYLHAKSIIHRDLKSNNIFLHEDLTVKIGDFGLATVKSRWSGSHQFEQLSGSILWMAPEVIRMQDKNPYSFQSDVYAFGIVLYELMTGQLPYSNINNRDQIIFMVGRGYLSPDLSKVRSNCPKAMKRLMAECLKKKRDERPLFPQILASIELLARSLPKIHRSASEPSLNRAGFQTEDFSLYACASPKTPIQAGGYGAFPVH

Kd (B-Raf): 3 nM
IC50 [2]: 4500 nM
IC50 [3]: 9400 nM
IC50 (A375P (human melanoma)): 2300 nM
IC50 (SKMEL3 (human melanoma)): 890 nM
IC50 (SKMEL2 (human melanoma)): > 1400 nM
SMILES: CN(C)CCOc1ccc(-c2cc(-c3ccc(Cl)c(O)c3)c(-c3ccncc3)o2)cc1 [Example 3, 2-Chloro-5-{5-[4-(2-dimethylamino-ethoxy)-phenyl]-2-pyridin-4-yl-furan-3-yl}-phenol]
IC50 [1]: > 30000 nM
